Values quoted from earlier work in patent US20110165235A1, “DIRECTLY PRESSED ALISKIREN TABLETS” (ratiopharm GmbH, priority 2008, published 2011).

Conditions: BCS classification

For `COCCCOc1cc(C[C@@H](C[C@H](N)[C@@H](O)C[C@H](C(=O)NCC(C)(C)C(N)=O)C(C)C)C(C)C)ccc1OC` [Aliskiren, (2S,4S,5S,7S)-5-amino-N-(2-carbamoyl-2-methyl-propyl)-4-hydroxy-7-{[4-methoxy-3-(3-methoxypropoxy)phenyl]methyl}-8-methyl-2-propan-2-yl-nonanamide], the solubility is listed as “high”.
